Assay: BLI persistence / colonization in mice (feces)
Assay type: in vivo, BALBc mice
Protocol: Mice: 6-week old female BALBc mice were purchased from The Jackson Labs. Mice were housed in an American Association for the Accreditation of Laboratory Animal Care-accredited facility, and procedures were conducted in compliance with the University of California Institutional Animal Care and Use Committee. Mice were co-housed 5 mice per cage in the Training and Research Animal Care Services vivarium at the University of California, Davis under conventional conditions with free access to standard chow RM1P (801151, Special Diet Services, Witham, England) and sterilized tap water with or without 2′FL. Mice were acclimated for 1 week prior to treatment. Mice were euthanized by decapitation following deep anesthesia with 100 mg/kg ketamine and 10 mg/kg xylazine administered by intraperitoneal injection.
Tissue Collection: Fecal samples were collected aseptically every 2 days for BLI detection. During necropsy, segments of duodenum, ileum, and colon were sectioned. First, Peyer's patches (PP) were collected and stored in 200 μL PBS in bead-beating tubes for homogenization and plating on blue/white screening agar. Duodenum, ileum, colon and cecum contents were collected into sterile tubes for bacterial analysis.
Bacterial plating and counting: PP, luminal contents and fecal samples were subjected to bead beating for 60 s at 4 m/s using a FastPrep homogenizer and 2 mm zirconium ceramic beads. Homogenate was serially diluted and plated on LB agar with kanamycin, x-gal and IPTG (blue-white screening agar) for differentiating JS107 and SJF10 strains, or further processed for DNA extraction and RT-qPCR for quantitation of BLI. […]
Strain-Specific qPCR: BLI was detected in fecal samples and intestinal contents following DNA extraction as described in Frese et al.^15 using the following primers: BLON0915F 5′[…]3′ and BLON0915R 5′ […]3′. […]

Substance: Bifidobacterium longum ssp. infantis ATCC 15697
- increase of colonization in the gastrointestinal tract with SIgA association (5-6 week old BALBc mice fed water): 4 log-scale
- increase of colonization in the gastrointestinal tract with SIgA association (mice supplemented with an HMO (10% 2′ fucosyllactose)): 5 log-scale
- higher concentration in feces when pre-incubated with milk SIgA (one day post oral administration, vs not pre-incubated): 10 ×
